This is an account of results in US20210283110A1, “COMPOUND FOR USE IN THE TREATMENT OF A DISEASE CHARACTERIZED BY DYSREGULATED MUCUS PRODUCTION AND/OR SECRETION” (UNIVERSITÄT REGENSBURG, priority 2018, published 2021).

Entries after “also recorded” stand apart in the source; their conditions may differ.

The subject of experiment [1] is TMEM16A or TMEM16F. Briefly: Expression of TMEM16A / TMEM16F after niclosamide. The experiment is classed as cell-based.
Experiment [2] deals with endogenous TMEM16A. The experiment can be described thus: Iodide quenching of YFP in HT29 cells stimulated with ionomycin. The experiment is classed as cell-based. The protocol: FIG. 15: Inhibition of TMEM16A and TMEM16F by niclosamide. • A) TMEM16A whole cell currents in overexpressing HEK293 cells. […] Rate of YFP quenching (arbitrary units (au/second), when applying 20 mM iodide to the extracellular bath solution. HT29 cells stably overexpressing YFP were stimulated with […] ionomycin. 100,000 cells were seeded/well. Mean±SEM; (number of experiments) #significant inhibition when compared to the absence of the inhibitor (p<0.05; unpaired t-test); *significant activation by UTP (paired t-test).
Similar to TMEM16A, also overexpressed TMEM16F was inhibited by niclosamide (FIG. 15D). The effect of niclosamide was also examined on endogenous TMEM16A expressed in HT29 colonic carcinoma cells, which were stably transfected with iodide-sensitive yellow fluorescent protein (YFP). TMEM16A was activated by ionomycin and TMEM16A currents were measured as iodide quenching.

The target in experiment [3] is T1, TMEM16A (Homo sapiens, UniProt Q5XXA6).
T1 sequence (Q5XXA6 1-986): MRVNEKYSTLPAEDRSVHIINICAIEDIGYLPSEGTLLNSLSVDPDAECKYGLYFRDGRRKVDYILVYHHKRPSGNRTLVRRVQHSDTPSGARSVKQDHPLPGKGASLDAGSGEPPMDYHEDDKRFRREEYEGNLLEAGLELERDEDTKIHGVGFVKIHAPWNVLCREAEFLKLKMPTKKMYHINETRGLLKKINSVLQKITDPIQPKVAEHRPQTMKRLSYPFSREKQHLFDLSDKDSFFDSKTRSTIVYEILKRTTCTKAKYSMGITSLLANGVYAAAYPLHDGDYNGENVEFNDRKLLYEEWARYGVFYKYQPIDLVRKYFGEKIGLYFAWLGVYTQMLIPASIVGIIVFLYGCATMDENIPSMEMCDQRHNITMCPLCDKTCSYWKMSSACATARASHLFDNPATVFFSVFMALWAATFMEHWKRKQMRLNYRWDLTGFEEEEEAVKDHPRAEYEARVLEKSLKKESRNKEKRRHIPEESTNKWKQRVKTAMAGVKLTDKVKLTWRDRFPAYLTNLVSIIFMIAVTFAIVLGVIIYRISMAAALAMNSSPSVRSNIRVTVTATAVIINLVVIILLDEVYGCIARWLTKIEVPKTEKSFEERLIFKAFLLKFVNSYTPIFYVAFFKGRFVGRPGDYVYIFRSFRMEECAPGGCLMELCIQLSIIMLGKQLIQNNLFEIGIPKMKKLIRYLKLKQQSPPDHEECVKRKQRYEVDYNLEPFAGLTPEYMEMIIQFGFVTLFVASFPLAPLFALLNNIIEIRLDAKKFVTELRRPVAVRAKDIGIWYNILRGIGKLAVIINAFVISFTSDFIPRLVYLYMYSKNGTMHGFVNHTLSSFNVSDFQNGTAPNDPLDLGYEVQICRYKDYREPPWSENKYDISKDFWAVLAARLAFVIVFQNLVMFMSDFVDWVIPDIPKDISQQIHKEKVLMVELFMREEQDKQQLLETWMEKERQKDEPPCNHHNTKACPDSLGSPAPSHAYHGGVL
Details: expressed in transfected cells; host or cells: HEK293 cells. The settings on record: Miner et al. [3]; cited from earlier work.

The subject of experiment [4] is mice homozygous for the cystic fibrosis mutation CFTR^deltaF508/deltaF508. It counts as in vivo. The settings on record: 13 mg/kg/day intraperitoneally for 7 days, in corn oil; vs sham. As to the method: Animals were treated for 7 days and subsequently sacrificed. Jejunum was excised, fixed in Carnoy Solution and embedded in paraffin.
The target of experiment [5] is T1, TMEM16A. The experiment can be described thus: Whole cell currents in HEK293 cells expressing TMEM16A (patch clamp). The settings on record: overexpressing HEK293 cells; UTP 100 μM. The experiment is classed as cell-based. Details: expressed in transfected cells; host or cells: HEK293 cells. The protocol:
FIG. 14: The TMEM16-inhibitor niflumic acid attenuates inflammatory airway disease. • A,B) OVA-sensitization induced pronounced goblet cell metaplasia as indicated by alcian blue positivity. Exposure to carbachol (CCH, 25 mg/ml, nebulizer) induced release of mucus and airway […]. Bars indicate […]. […] Mean±SEM; *significant inhibition by NFA (paired ttest). # significant difference when compared to OVA (unpaired t-test). (n) number of airways analysed or number of cells examined.
FIG. 15: Inhibition of TMEM16A and TMEM16F by niclosamide. • A) TMEM16A whole cell currents in overexpressing HEK293 cells. […]
OVA-induced allergic airway inflammation in mice caused pronounced airway goblet cell metaplasia. […] The two main TMEM16 paralogs expressed in airway epithelial and smooth muscle cells, TMEM16A and TMEM16F, were expressed in HEK293 cells and the whole cell currents upon activation by the Ca^2+ ionophore ionomycin (Iono) were measured. […]
Similar to TMEM16A, also overexpressed TMEM16F was inhibited by niclosamide (FIG. 15D). […] TMEM16A was activated by ionomycin and TMEM16A currents were measured as iodide quenching.

Experiment [6] concerns the target T1, TMEM16A. Briefly: ATP-induced current in HT29 cells expressing TMEM16A, patch clamp. It counts as cell-based. Details: expressed in transfected cells. The settings on record: 1 μM compound applied simultaneously with ATP (wo μM), #p<0.01. The text has this: FIG. 2: ATP-induced current in HT29 cells expressing TMEM16A in an electrophysiological patch clamp investigation.
ATP was applied at a concentration of wo μM.

Experiment [7] relates to Calu3 airway epithelial cells. The experiment can be described thus: LPS-induced IL-8 release by Calu3 cells (ELISA). The experiment is classed as cell-based, human. The settings on record: Calu3 cells exposed to LPS for 48 hrs. The protocol:
Mouse models were performed according to the previous example. For investigating mucus, IL-8 release, and leukocytes, tissues were fixed using 4% paraformaldehyde (PFA), 0.2% picric acid and 3.4% sucrose in PBS and washed in methanol before embedding in paraffin. Mucus was analyzed using standard Periodic acid-Schiff (PAS) or alcian blue staining. MUC5AC was stained using anti-MUC5AC mouse antibody (1:200, Abcam, ab3649) and a secondary antibody conjugated with Alexa488 (Life Technologies, A-21206). Nuclei were stained with Hoe33342 (0.1 μg/ml PBS, Aplichem, Darmstadt, Germany). Quantikine ELISA kits (R&D systems) were used to measure secretion of the cytokine IL-8 by Calu3 cells.
Calu3 airway epithelial cells were exposed to LPS for 48 hrs and the release of the neutrophil attractor interleukin 8 (IL-8) was measured. […] Upon stimulation with the Th2 cytokine IL-13, Calu3 cells produced MUC5AC. […] Taken together, airway epithelial knockout of TMEM16A caused a defect in mucus secretion, while mucus production was retained (FIG. 16C).
In general terms: ELISA stands for enzyme-linked immunosorbent assay.

Consider `O=C(Nc1ccc([N+](=O)[O-])cc1Cl)c1cc(Cl)ccc1O` [niclosamide, 5-chloro-N-(2-chloro-4-nitrophenyl)-2-hydroxybenzamide], for which the “expression of either TMEM16A or TMEM16F” value in experiment [1] is listed as “did not change”. For the same compound, the “potency compared with CaCCinhAO1 or dichlorophen” value in experiment [2] (HT29 YFP iodide quenching) is “more potent”. Further, the “inhibition of endogenous TMEM16A (iodide quenching of YFP)” value in experiment [2] (HT29 cells stably expressing YFP, ionomycin, 20 mM iodide) is recorded as “low nanomolar range”. In addition, the TMEM16A inhibition result in experiment [3] is “inhibitors of TMEM16A”. In experiment [4], the jejunal diameters result was “smaller” and the “mucus in jejunum (alcian blue)” value is on record as “largely reduced”. Moreover, in experiment [5], the “TMEM16A outward currents activated by purinergic stimulation” value is given as “inhibitory effect; also recorded: Concentration-dependent inhibition”. In addition, the “ATP-induced ion current arising from TMEM16A activation” value in experiment [6] is listed as “significantly reduced”. The IL-8 release entry in experiment [7] is given as “clearly inhibited”.
